Reference: patent US11834717B2, “Biomarkers for cancer diagnosis, prediction or staging” (Universite du Luxembourg, priority 2017, dated 2023)

Tested on: MYO5B expression in CRC cell lines
Test: MYO5B expression in CRC cell lines after 5-aza-dC (DAC) treatment, RT-qPCR
Assay type: cell-based
Conditions: colon cancer (CRC) cell lines, 5 μM for four days vs vehicle (DMSO), 2-4 independent experiments, FIG. 3A
Protocol: All CRC cell lines were obtained from the American Type Culture Collection (ATCC, Rockville, USA) and maintained in recommended culture conditions. For methylation analysis, cells were treated with 5 μM 5-Aza-2′-Deoxycytidine (5-aza-dC/DAC, Sigma) or vehicle (DMSO) for four days followed by RNA extraction.
PCR conditions were used as previously described (Letellier et al, 2014) and the expression levels of the gene of interest were normalized against the housekeeping gene HPRT (Erickson et al, 2009). For bulk tissue and CRC cell lines, the RNA was extracted with the Mirneasy kit from Qiagen and the cDNA was obtained with the mirscript II (Qiagen). PCR cycling conditions as well as quality control and normalization steps were done in qBase+ (Biogazelle), using 2 reference genes as previously described (Qureshi-Baig et al, 2016; Ullmann et a, 2016).
Over the last years, hypermethylation of tumor suppressor genes has been reported in different cancer types (Biswas & Rao, 2017). In a similar manner, MYO5B is methylated in both gastric tumors (Dong et al, 2013) and leukemias (Kuang et al, 2008). Thus, it was analyzed whether promoter methylation could explain the observed down-regulation of MYO5B in CRC. To this end, the expression of MYO5B in CRC cell lines was investigated first after treatment with 5-Aza-2′-Deoxycytidine (5-aza-dC/DAC), a known demethylating agent.

For `Nc1ncn([C@H]2C[C@H](O)[C@@H](CO)O2)c(=O)n1` [DAC, 5-Aza-2′-Deoxycytidine], the “change of MYO5B basal expression levels after DAC treatment” value was “minor changes” and the “change of MYO5B basal expression levels after DAC treatment” value (listed as 5-aza-dC) was “does not increase”.
